The values that follow come from patent US9376429B2, “Sodium channel blockers, preparation method thereof and use thereof” (Daewoong Pharmaceutical Co., Ltd., priority 2012, dated 2016).

Where only a bound is given, the exact number is not on record here.

One experiment deals with T1, sodium ion channel (Nav1.7) (Homo sapiens, UniProt Q15858).
T1 construct: host or cells: HEK293
T1 sequence (Q15858 whole entry): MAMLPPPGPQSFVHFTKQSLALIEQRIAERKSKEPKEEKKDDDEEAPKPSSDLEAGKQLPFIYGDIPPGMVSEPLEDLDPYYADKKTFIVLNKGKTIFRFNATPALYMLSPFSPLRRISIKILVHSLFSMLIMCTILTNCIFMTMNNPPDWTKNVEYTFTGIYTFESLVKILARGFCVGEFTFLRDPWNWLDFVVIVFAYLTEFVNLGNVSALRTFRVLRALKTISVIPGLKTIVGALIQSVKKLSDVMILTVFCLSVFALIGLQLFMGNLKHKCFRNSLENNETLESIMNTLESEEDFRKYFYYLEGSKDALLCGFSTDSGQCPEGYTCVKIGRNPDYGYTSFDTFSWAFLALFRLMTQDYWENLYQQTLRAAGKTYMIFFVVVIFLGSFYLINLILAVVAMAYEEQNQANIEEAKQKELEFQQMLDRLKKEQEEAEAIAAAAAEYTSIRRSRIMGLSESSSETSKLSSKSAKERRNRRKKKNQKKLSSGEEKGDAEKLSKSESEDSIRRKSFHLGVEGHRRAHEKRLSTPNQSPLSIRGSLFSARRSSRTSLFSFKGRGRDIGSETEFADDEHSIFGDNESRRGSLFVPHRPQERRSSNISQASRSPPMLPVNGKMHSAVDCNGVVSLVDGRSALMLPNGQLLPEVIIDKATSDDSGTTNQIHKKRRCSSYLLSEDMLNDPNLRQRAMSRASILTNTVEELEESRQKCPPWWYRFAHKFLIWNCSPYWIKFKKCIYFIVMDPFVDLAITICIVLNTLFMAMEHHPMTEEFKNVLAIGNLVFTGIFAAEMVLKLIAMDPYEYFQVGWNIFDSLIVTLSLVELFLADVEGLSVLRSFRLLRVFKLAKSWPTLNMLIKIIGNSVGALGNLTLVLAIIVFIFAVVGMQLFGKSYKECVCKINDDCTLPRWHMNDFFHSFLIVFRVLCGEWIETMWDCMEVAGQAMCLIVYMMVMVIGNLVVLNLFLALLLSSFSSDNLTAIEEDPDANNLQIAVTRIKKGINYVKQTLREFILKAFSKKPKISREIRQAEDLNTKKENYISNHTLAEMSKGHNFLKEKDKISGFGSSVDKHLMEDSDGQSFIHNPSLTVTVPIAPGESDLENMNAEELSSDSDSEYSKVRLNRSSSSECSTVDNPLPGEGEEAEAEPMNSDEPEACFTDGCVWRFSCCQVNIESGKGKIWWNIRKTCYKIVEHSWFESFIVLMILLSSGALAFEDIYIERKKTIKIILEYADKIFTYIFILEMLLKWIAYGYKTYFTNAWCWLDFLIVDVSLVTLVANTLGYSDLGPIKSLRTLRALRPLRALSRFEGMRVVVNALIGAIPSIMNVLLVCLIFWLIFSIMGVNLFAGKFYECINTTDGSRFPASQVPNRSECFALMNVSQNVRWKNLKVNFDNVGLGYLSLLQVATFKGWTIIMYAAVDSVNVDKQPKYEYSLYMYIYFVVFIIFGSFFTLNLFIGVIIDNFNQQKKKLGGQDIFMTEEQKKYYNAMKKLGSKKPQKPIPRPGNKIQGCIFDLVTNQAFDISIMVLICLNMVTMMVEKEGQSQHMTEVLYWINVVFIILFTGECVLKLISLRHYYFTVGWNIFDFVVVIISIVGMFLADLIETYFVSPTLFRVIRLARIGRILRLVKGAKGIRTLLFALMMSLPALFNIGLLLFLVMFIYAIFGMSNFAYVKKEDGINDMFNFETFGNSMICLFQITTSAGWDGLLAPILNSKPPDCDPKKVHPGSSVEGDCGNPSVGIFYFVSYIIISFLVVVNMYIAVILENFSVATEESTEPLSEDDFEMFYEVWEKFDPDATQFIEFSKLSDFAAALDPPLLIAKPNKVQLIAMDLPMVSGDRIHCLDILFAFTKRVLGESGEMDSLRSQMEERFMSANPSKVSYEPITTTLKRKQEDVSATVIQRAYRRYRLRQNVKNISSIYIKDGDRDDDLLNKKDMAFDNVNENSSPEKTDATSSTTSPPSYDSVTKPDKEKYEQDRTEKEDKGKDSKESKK
Kind of experiment: Blocking effect against sodium ion channel (Nav1.7), IonFlux16 auto patch clamp, hNav1.7 HEK293 cells. The format is cell-based. The settings on record: peak current after 50 seconds treatment, eight concentrations. In a few lines:
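HEK293 cells stably expressing human Nav1.7 were recorded by IonFlux16 automated patch clamp in extracellular solution (pH 7.45, final DMSO ≤0.3%). Peak current was measured after 50 s exposure to each of eight compound concentrations and expressed as percent inhibition relative to pre-compound current.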
For orientation: Patch clamp records ionic current or voltage across a cell membrane.
As for `N#Cc1cc(S(=O)(=O)Nc2nccs2)ccc1Oc1cnc(-c2ccoc2)cc1-c1ccoc1` [Example 16, 3-cyano-4-((4,6-di(furan-3-yl)pyridin-3-yl)oxy)-N-(thiazol-2-yl)benzenesulfonamide], the IC50 was below 50 nM.
`N#Cc1cc(S(=O)(=O)Nc2nccs2)ccc1Oc1cnc(-c2ccccc2F)cc1-c1cccnc1` [Example 52, 3-cyano-4-((6′-(2-fluorophenyl)-[3,4′-bipyridin]-3′-yl)oxy)-N-(thiazol-2-yl)benzenesulfonamide] registered an IC50 above 100 nM.
On the same count and under the same terms, as for `Cn1cc(-c2cc(-c3ccc(F)cc3)ncc2Oc2cc(F)c(S(=O)(=O)Nc3cscn3)cc2Cl)cn1` [Example 65, 5-chloro-2-fluoro-4-((6-(4-fluorophenyl)-4-(1-methyl-1H-pyrazol-4-yl)pyridin-3-yl)oxy)-N-(thiazol-4-yl)benzenesulfonamide 2,2,2-trifluoroacetate], the figure is above 100 nM; as for `O=S(=O)(Nc1cscn1)c1cc(F)c(Oc2cnc(-c3cccc(F)c3)cc2-c2cccnc2)cc1F` [Example 87, 2,5-difluoro-4-((6′-(3-fluorophenyl)-[3,4′-bipyridin]-3′-yl)oxy)-N-(thiazol-4-yl)benzenesulfonamide], above 100 nM; as for `O=S(=O)(Nc1nccs1)c1ccc(Oc2cnc(-c3ccc(F)nc3)cc2-c2ccoc2)c(F)c1` [Example 48, 3-fluoro-4-((6′-fluoro-4-(furan-3-yl)-[2,3′-bipyridin]-5-yl)oxy)-N-(thiazol-2-yl)benzenesulfonamide], above 100 nM.
Still for that read-out and setting: as for `Cn1cc(-c2cc(-c3ccccc3)ncc2Oc2ccc(S(=O)(=O)Nc3nccs3)cc2C#N)cn1` [Example 38, 3-cyano-4-((4-(1-methyl-1H-pyrazol-4-yl)-6-phenylpyridin-3-yl)oxy)-N-(thiazol-2-yl)benzenesulfonamide], the figure is above 100 nM.
Still for that read-out and setting: as for `N#Cc1cc(S(=O)(=O)Nc2nccs2)ccc1Oc1cnc(-c2ccsc2)cc1-c1ccoc1` [Example 20, 3-cyano-4-((4-(furan-3-yl)-6-(thiophen-3-yl)pyridin-3-yl)oxy)-N-(thiazol-2-yl)benzenesulfonamide], the figure is above 100 nM.
Take `N#Cc1cc(S(=O)(=O)Nc2nccs2)ccc1Oc1cnc(-c2ccccc2)cc1-c1cn[nH]c1` [Example 39, 3-cyano-4-((6-phenyl-4-(1H-pyrazol-4-yl)pyridin-3-yl)oxy)-N-(thiazol-2-yl)benzenesulfonamide]: the IC50 was in the range of 51 to 100 nM.
Same read-out and setting: for `Cc1ccc(-c2cc(-c3ccccc3)ncc2Oc2ccc(S(=O)(=O)Nc3nccs3)cc2C#N)s1` [Example 42, 3-cyano-4-((4-(5-methylthiophen-2-yl)-6-phenylpyridin-3-yl)oxy)-N-(thiazol-2-yl)benzenesulfonamide] the value was above 100 nM; for `Cn1nccc1-c1cc(-c2ccc(F)nc2)ncc1Oc1ccc(S(=O)(=O)Nc2nccs2)cc1C#N` [Example 19, 3-cyano-4-((6′-fluoro-4-(1-methyl-1H-pyrazol-5-yl)-[2,3′-bipyridin]-5-yl)oxy)-N-(thiazol-2-yl)benzenesulfonamide], above 100 nM.
`N#Cc1cc(S(=O)(=O)Nc2nccs2)ccc1Oc1cnc(-c2ccccc2)cc1-c1ccnc(F)c1` [Example 31, 3-cyano-4-((2′-fluoro-6-phenyl-[4,4′-bipyridin]-3-yl)oxy)-N-(thiazol-2-yl)benzenesulfonamide] came in with an IC50 of 51 to 100 nM.
On the same count and under the same terms, for `N#Cc1cc(S(=O)(=O)Nc2nccs2)ccc1Oc1ccc(-c2ccoc2)nc1-c1ccoc1` [Example 114, 3-cyano-4-((2,6-di(furan-3-yl)pyridin-3-yl)oxy)-N-(thiazol-2-yl)benzenesulfonamide] the value was above 100 nM; for `Cn1nccc1-c1cc(Cl)ccc1C(O)c1ccc(S(=O)(=O)Nc2nccs2)cc1F` (stereo not shown) [Example 144, 4-((4-chloro-2-(1-methyl-1H-pyrazol-5-yl)phenyl)(hydroxy)methyl)-3-fluoro-N-(thiazol-2-yl)benzenesulfonamide], above 100 nM; for `O=S(=O)(Nc1cscn1)c1cc(F)c(Oc2cnc(-c3ccc(C(F)(F)F)c(F)c3)cc2-c2cncnc2)cc1F` [Example 97, 2,5-difluoro-4-((6-(3-fluoro-4-(trifluoromethyl)phenyl)-4-(pyrimidin-5-yl)pyridin-3-yl)oxy)-N-(thiazol-4-yl)benzenesulfonamide], above 100 nM.
Still for that read-out and setting: for `O=S(=O)(Nc1cscn1)c1cc(Cl)c(Oc2cnc(-c3cccc(F)c3)cc2-c2ccnc(N3CCCCC3)c2)cc1F` [Example 102, 5-chloro-2-fluoro-4-((6-(3-fluorophenyl)-2′-(piperidin-1-yl)-[4,4′-bipyridin]-3-yl)oxy)-N-(thiazol-4-yl)benzenesulfonamide] the value was above 100 nM; for `Cc1noc(C)c1-c1cc(-c2ccccc2)ncc1Oc1ccc(S(=O)(=O)Nc2nccs2)cc1C#N` [Example 37, 3-cyano-4-((4-(3,5-dimethylisoxazol-4-yl)-6-phenylpyridin-3-yl)oxy)-N-(thiazol-2-yl)benzenesulfonamide], above 100 nM; for `O=S(=O)(Nc1cscn1)c1cc(Cl)c(Oc2cnc(-c3ccnc(F)c3)cc2-c2cccnc2)cc1F` [Example 75, 5-chloro-2-fluoro-4-((2″-fluoro-[3,4′:2′,4″-terpyridin]-5′-yl)oxy)-N-(thiazol-4-yl)benzenesulfonamide], above 100 nM.
Same read-out and setting: as for `Cn1nccc1-c1nc(-c2ccc(F)cc2)ccc1Oc1cc(F)c(S(=O)(=O)Nc2cscn2)cc1Cl` [Example 135, 5-chloro-2-fluoro-4-((6-(4-fluorophenyl)-2-(1-methyl-1H-pyrazol-5-yl)pyridin-3-yl)oxy)-N-(thiazol-4-yl)benzenesulfonamide], the figure is above 100 nM.
For `O=S(=O)(Nc1nccs1)c1ccc(Oc2cnc(-c3ccoc3)cc2-c2ccoc2)cc1` [Example 28, 4-((4,6-di(furan-3-yl)pyridin-3-yl)oxy)-N-(thiazol-2-yl)benzenesulfonamide], the IC50 is above 100 nM.
On the same count and under the same terms, for `O=S(=O)(Nc1nccs1)c1ccc(C(O)c2ccc(Cl)cc2-c2ccncc2)cc1` (stereo not shown) [Example 147, 4-((4-chloro-2-(pyridin-4-yl)phenyl)(hydroxy)methyl)-N-(thiazol-2-yl)benzenesulfonamide] the value was above 100 nM; for `O=S(=O)(Nc1cscn1)c1cc(Cl)c(Oc2ccc(-c3ccc(F)nc3F)nc2-c2ccoc2)cc1F` [Example 129, 5-chloro-4-((2′,6′-difluoro-6-(furan-3-yl)-[2,3′-bipyridin]-5-yl)oxy)-2-fluoro-N-(thiazol-4-yl)benzenesulfonamide], above 100 nM.

System in the next experiment: not given
Experiment: not given
The settings on record: neuropathic pain patients; cited from earlier work.
For `NCC1(CC(=O)O)CCCCC1` [gabapentin], the “effective for share of the patients” value is recorded as 60%.

By IC50 is commonly meant the point on the concentration scale where inhibition reaches its midpoint.
